Data as given in the kinase profiling compilation of Christmann-Franck et al. (2016).

Tests used:
Assay in all cases: KINOMEscan competition binding
Details in all cases: compound 10.0 µM
[1] = target: CSF1R (human) (UniProt P07333)
[2] = target: INSRR (human) (UniProt P14616)
[3] = target: RIOK2 (human) (UniProt Q9BVS4)
[4] = target: MAPKAPK5 (human) (UniProt Q8IW41)
[5] = target: ACVR2A (human) (UniProt P27037)
[6] = target: MAPK14 (human) (UniProt Q16539)
[7] = target: STK39 (human) (UniProt Q9UEW8)
[8] = target: JAK2 JH1 catalytic (human) (UniProt O60674)
[9] = target: BMPR1B (human) (UniProt O00238)
[10] = target: IGF1R (human) (UniProt P08069)
[11] = target: MAP2K6 (human) (UniProt P52564)
[12] = target: LIMK1 (human) (UniProt P53667)
[13] = target: PIK3C2G (human) (UniProt O75747)
[14] = target: MTOR (human) (UniProt P42345)
[15] = target: SGK3 (human) (UniProt Q96BR1)
[16] = target: ADCK3 (human) (UniProt Q8NI60)
[17] = target: CDK3 (human) (UniProt Q00526)
[18] = target: PDPK1 (human) (UniProt O15530)
[19] = target: NEK11 (human) (UniProt Q8NG66)
[20] = target: TIE1 (human) (UniProt P35590)
[21] = target: STK32A (human) (UniProt Q8WU08)
[22] = target: NEK9 (human) (UniProt Q8TD19)
[23] = target: SRPK3 (human) (UniProt Q9UPE1)
[24] = target: ICK (human) (UniProt Q9UPZ9)
[25] = target: SIK1 (human) (UniProt P57059)
[26] = target: TESK1 (human) (UniProt Q15569)
[27] = target: TGFBR2 (human) (UniProt P37173)
[28] = target: PRKAA2 (human) (UniProt P54646)
[29] = target: PLK3 (human) (UniProt Q9H4B4)
[30] = target: JAK3 JH1 catalytic (human) (UniProt P52333)
[31] = target: AKT2 (human) (UniProt P31751)
[32] = target: PRKACA (human) (UniProt P17612)
[33] = target: MYO3A (human) (UniProt Q8NEV4)
[34] = target: PRKCQ (human) (UniProt Q04759)
[35] = target: CSK (human) (UniProt P41240)
[36] = target: PRKD2 (human) (UniProt Q9BZL6)
[37] = target: PRKD3 (human) (UniProt O94806)
[38] = target: PRKCE (human) (UniProt Q02156)
[39] = target: DAPK2 (human) (UniProt Q9UIK4)
[40] = target: MAPK6 (human) (UniProt Q16659)

Chain of JAK2 JH1 catalytic (human) (O60674 whole entry, looked up): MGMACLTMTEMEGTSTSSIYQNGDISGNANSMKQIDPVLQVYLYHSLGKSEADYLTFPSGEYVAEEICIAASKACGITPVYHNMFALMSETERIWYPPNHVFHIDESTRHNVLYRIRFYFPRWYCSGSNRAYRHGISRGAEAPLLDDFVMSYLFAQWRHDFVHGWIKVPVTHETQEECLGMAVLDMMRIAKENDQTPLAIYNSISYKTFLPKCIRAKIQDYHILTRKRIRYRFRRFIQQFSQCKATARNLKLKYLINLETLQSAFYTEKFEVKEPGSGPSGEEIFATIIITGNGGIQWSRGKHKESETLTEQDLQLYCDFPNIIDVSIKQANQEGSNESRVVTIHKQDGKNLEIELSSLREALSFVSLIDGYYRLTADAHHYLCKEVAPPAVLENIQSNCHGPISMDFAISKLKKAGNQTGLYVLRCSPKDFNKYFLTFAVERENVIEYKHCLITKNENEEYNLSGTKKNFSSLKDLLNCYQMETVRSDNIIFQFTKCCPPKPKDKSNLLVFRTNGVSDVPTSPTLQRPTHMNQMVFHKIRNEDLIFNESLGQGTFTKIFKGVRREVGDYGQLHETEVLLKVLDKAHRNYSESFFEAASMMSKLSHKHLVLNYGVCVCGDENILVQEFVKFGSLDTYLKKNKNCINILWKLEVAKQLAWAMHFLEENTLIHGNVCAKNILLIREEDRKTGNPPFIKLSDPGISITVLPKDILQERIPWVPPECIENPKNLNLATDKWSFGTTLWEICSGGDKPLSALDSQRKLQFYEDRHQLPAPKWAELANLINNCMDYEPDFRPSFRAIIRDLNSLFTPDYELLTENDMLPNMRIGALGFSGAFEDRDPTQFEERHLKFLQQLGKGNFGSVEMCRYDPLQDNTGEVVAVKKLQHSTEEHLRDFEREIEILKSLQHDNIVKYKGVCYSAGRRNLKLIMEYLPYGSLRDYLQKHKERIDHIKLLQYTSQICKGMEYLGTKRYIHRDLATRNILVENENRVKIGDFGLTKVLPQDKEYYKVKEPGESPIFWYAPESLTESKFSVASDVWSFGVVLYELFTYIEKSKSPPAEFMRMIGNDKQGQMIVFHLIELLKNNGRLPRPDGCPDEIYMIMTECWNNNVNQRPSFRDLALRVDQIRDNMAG
Chain of ICK (human) (Q9UPZ9 whole entry, looked up): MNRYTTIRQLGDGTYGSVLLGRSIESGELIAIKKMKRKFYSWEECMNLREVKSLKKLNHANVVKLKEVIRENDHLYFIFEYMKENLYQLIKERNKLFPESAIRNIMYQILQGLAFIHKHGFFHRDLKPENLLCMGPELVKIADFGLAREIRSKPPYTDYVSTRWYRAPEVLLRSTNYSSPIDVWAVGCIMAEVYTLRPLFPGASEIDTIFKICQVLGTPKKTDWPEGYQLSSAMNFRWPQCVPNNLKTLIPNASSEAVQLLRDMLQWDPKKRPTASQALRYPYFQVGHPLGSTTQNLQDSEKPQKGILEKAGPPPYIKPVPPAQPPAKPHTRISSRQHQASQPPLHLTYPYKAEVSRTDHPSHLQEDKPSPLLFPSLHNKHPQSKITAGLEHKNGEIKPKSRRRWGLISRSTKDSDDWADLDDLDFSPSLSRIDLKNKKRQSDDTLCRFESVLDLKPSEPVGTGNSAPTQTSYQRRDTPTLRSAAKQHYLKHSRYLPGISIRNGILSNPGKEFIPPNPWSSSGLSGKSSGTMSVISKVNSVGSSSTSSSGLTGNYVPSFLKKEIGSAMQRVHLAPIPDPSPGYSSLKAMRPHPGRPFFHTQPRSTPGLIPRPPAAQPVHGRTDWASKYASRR
Chain of PRKAA2 (human) (P54646 whole entry, looked up): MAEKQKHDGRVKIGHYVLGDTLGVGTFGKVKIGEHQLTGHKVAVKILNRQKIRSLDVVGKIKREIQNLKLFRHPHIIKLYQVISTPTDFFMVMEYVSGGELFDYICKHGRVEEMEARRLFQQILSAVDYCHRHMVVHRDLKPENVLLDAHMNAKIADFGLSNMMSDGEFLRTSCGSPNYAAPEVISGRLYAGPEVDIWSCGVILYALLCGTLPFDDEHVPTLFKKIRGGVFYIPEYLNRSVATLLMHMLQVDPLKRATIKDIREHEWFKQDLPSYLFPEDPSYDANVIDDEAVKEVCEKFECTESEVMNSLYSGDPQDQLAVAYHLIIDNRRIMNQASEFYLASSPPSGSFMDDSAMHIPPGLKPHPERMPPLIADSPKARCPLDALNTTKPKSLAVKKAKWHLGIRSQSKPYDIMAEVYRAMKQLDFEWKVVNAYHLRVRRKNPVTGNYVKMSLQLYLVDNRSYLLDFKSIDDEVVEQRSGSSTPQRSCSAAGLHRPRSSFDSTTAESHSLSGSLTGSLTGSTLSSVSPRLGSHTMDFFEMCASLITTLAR
Chain of ADCK3 (human) (Q8NI60 whole entry, looked up): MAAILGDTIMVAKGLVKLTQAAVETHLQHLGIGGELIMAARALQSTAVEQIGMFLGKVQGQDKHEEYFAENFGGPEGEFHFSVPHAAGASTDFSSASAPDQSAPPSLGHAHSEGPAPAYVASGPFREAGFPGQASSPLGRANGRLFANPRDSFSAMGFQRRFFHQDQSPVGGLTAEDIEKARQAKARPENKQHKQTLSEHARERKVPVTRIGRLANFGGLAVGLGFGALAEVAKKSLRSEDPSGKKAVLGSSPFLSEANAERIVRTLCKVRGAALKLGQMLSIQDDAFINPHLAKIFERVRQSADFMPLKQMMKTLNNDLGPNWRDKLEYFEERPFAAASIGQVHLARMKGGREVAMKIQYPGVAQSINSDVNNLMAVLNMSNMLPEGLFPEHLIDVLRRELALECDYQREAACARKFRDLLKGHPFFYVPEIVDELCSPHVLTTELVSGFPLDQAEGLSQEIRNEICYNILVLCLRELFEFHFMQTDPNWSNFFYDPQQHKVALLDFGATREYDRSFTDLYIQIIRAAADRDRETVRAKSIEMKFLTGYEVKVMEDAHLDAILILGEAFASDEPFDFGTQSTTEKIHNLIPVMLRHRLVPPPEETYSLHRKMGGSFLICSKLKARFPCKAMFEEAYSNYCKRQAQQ
Chain of TGFBR2 (human) (P37173 whole entry, looked up): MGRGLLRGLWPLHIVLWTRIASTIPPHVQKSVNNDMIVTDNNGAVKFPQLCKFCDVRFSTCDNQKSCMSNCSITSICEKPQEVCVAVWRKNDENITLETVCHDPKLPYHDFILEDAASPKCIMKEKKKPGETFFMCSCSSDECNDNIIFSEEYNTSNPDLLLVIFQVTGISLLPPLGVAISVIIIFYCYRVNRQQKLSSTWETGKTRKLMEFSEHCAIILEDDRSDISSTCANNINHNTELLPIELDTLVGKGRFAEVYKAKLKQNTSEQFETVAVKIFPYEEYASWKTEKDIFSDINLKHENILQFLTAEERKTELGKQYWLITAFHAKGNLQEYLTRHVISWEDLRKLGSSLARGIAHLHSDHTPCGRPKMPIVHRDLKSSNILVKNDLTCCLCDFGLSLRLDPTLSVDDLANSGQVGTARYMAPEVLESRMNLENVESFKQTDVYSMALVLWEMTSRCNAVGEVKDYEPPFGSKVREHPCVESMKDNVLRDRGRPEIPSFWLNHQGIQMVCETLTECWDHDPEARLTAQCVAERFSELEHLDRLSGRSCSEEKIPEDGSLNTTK
Chain of AKT2 (human) (P31751 whole entry, looked up): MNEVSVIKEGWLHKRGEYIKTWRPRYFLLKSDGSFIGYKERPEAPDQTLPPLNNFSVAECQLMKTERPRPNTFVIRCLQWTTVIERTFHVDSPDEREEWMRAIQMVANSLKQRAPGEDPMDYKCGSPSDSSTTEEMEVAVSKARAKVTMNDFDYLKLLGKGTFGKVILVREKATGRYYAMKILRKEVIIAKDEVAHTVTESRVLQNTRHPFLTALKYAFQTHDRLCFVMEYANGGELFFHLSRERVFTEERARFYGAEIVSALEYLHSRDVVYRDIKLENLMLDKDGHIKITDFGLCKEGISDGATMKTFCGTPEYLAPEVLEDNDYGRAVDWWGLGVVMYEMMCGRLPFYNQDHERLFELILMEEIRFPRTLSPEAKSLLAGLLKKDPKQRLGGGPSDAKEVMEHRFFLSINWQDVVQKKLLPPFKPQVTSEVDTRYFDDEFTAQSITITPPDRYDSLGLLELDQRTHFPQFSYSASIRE
Chain of RIOK2 (human) (Q9BVS4 whole entry, looked up): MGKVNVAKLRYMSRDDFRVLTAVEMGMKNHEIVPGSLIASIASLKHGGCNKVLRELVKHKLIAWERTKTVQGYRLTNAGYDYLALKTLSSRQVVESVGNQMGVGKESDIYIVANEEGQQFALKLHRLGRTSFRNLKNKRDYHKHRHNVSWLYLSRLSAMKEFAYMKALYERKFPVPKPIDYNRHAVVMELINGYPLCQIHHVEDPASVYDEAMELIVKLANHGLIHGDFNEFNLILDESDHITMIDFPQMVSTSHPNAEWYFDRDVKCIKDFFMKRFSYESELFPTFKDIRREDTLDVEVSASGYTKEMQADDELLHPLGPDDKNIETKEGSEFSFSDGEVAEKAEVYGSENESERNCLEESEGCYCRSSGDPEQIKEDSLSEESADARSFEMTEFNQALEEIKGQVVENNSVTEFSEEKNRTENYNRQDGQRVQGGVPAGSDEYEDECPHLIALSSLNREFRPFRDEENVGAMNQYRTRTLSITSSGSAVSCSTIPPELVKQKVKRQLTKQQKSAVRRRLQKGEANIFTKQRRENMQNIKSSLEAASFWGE
Chain of CDK3 (human) (Q00526 whole entry, looked up): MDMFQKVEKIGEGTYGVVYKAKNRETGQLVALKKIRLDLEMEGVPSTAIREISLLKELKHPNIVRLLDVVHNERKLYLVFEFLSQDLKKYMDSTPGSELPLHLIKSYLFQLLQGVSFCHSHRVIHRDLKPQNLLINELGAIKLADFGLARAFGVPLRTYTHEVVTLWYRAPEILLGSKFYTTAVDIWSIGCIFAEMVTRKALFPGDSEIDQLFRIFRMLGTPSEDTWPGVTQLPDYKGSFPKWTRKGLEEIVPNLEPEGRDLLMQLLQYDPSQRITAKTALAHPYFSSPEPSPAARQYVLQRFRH

## O=c1cc(N2CCOCC2)oc2c(-c3cccc4c3sc3ccccc34)cccc12
[1]
  kinase still bound, per cent of control: 100%
[2]
  kinase still bound, per cent of control: 100%
[3]
  kinase still bound, per cent of control: 22%
[4]
  kinase still bound, per cent of control: 100%
[5]
  kinase still bound, per cent of control: 96%
[6]
  kinase still bound, per cent of control: 98%
[7]
  kinase still bound, per cent of control: 100%
[8]
  kinase still bound, per cent of control: 67%
[9]
  kinase still bound, per cent of control: 35%
[10]
  kinase still bound, per cent of control: 97%
[11]
  kinase still bound, per cent of control: 73%
[12]
  kinase still bound, per cent of control: 100%
[13]
  kinase still bound, per cent of control: 16%
[14]
  kinase still bound, per cent of control: 18%
[15]
  kinase still bound, per cent of control: 100%
[16]
  kinase still bound, per cent of control: 72%
[17]
  kinase still bound, per cent of control: 100%
[18]
  kinase still bound, per cent of control: 95%
[19]
  kinase still bound, per cent of control: 100%
[20]
  kinase still bound, per cent of control: 100%
[21]
  kinase still bound, per cent of control: 100%
[22]
  kinase still bound, per cent of control: 93%
[23]
  kinase still bound, per cent of control: 100%
[24]
  kinase still bound, per cent of control: 100%
[25]
  kinase still bound, per cent of control: 100%
[26]
  kinase still bound, per cent of control: 72%
[27]
  kinase still bound, per cent of control: 89%
[28]
  kinase still bound, per cent of control: 100%
[29]
  kinase still bound, per cent of control: 86%
[30]
  kinase still bound, per cent of control: 81%
[31]
  kinase still bound, per cent of control: 51%
[32]
  kinase still bound, per cent of control: 87%
[33]
  kinase still bound, per cent of control: 89%
[34]
  kinase still bound, per cent of control: 100%
[35]
  kinase still bound, per cent of control: 100%
[36]
  kinase still bound, per cent of control: 100%
[37]
  kinase still bound, per cent of control: 100%
[38]
  kinase still bound, per cent of control: 100%
[39]
  kinase still bound, per cent of control: 90%
[40]
  kinase still bound, per cent of control: 100%

## NC(=O)Nc1cc(-c2cccc(F)c2)sc1C(=O)N[C@@H]1CCCNC1
[1]
  kinase still bound, per cent of control: 0%
[2]
  kinase still bound, per cent of control: 22%
[3]
  kinase still bound, per cent of control: 48%
[4]
  kinase still bound, per cent of control: 0.05%
[5]
  kinase still bound, per cent of control: 2.2%
[6]
  kinase still bound, per cent of control: 100%
[7]
  kinase still bound, per cent of control: 4.4%
[8]
  kinase still bound, per cent of control: 0%
[9]
  kinase still bound, per cent of control: 0.1%
[10]
  kinase still bound, per cent of control: 44%
[11]
  kinase still bound, per cent of control: 3.8%
[12]
  kinase still bound, per cent of control: 62%
[13]
  kinase still bound, per cent of control: 64%
[14]
  kinase still bound, per cent of control: 72%
[15]
  kinase still bound, per cent of control: 27%
[16]
  kinase still bound, per cent of control: 93%
[17]
  kinase still bound, per cent of control: 100%
[18]
  kinase still bound, per cent of control: 0.7%
[19]
  kinase still bound, per cent of control: 100%
[20]
  kinase still bound, per cent of control: 7.2%
[21]
  kinase still bound, per cent of control: 1%
[22]
  kinase still bound, per cent of control: 80%
[23]
  kinase still bound, per cent of control: 0.55%
[24]
  kinase still bound, per cent of control: 100%
[25]
  kinase still bound, per cent of control: 0.3%
[26]
  kinase still bound, per cent of control: 11%
[27]
  kinase still bound, per cent of control: 2.4%
[28]
  kinase still bound, per cent of control: 0.35%
[29]
  kinase still bound, per cent of control: 39%
[30]
  kinase still bound, per cent of control: 0%
[31]
  kinase still bound, per cent of control: 60%
[32]
  kinase still bound, per cent of control: 1.4%
[33]
  kinase still bound, per cent of control: 4.2%
[34]
  kinase still bound, per cent of control: 0%
[35]
  kinase still bound, per cent of control: 0.05%
[36]
  kinase still bound, per cent of control: 0.9%
[37]
  kinase still bound, per cent of control: 2.2%
[38]
  kinase still bound, per cent of control: 14%
[39]
  kinase still bound, per cent of control: 5.4%
[40]
  kinase still bound, per cent of control: 54%

## CN(C)C/C=C/C(=O)Nc1ccc(C(=O)Nc2cccc(Nc3nccc(-c4cccnc4)n3)c2)cc1
[1]
  kinase still bound, per cent of control: 100%
[2]
  kinase still bound, per cent of control: 100%
[3]
  kinase still bound, per cent of control: 9.6%
[4]
  kinase still bound, per cent of control: 100%
[5]
  kinase still bound, per cent of control: 53%
[6]
  kinase still bound, per cent of control: 99%
[7]
  kinase still bound, per cent of control: 58%
[8]
  kinase still bound, per cent of control: 8.4%
[9]
  kinase still bound, per cent of control: 28%
[10]
  kinase still bound, per cent of control: 100%
[11]
  kinase still bound, per cent of control: 47%
[12]
  kinase still bound, per cent of control: 60%
[13]
  kinase still bound, per cent of control: 100%
[14]
  kinase still bound, per cent of control: 80%
[15]
  kinase still bound, per cent of control: 65%
[16]
  kinase still bound, per cent of control: 100%
[17]
  kinase still bound, per cent of control: 96%
[18]
  kinase still bound, per cent of control: 100%
[19]
  kinase still bound, per cent of control: 100%
[20]
  kinase still bound, per cent of control: 55%
[21]
  kinase still bound, per cent of control: 95%
[22]
  kinase still bound, per cent of control: 22%
[23]
  kinase still bound, per cent of control: 28%
[24]
  kinase still bound, per cent of control: 62%
[25]
  kinase still bound, per cent of control: 100%
[26]
  kinase still bound, per cent of control: 74%
[27]
  kinase still bound, per cent of control: 50%
[28]
  kinase still bound, per cent of control: 95%
[29]
  kinase still bound, per cent of control: 35%
[30]
  kinase still bound, per cent of control: 10%
[31]
  kinase still bound, per cent of control: 100%
[32]
  kinase still bound, per cent of control: 100%
[33]
  kinase still bound, per cent of control: 73%
[34]
  kinase still bound, per cent of control: 68%
[35]
  kinase still bound, per cent of control: 97%
[36]
  kinase still bound, per cent of control: 100%
[37]
  kinase still bound, per cent of control: 94%
[38]
  kinase still bound, per cent of control: 75%
[39]
  kinase still bound, per cent of control: 81%
[40]
  kinase still bound, per cent of control: 7.4%
